These are literature values, as cited in patent US5514648A, “Fungicidally active compounds” (priority 1990, dated 1996).

The test system of data set [1] is Bacillus subtilis. The following applies: against Bacillus subtilis; cited from earlier work.
Data set [2] concerns Staphylococcus aureus. Conditions: against Staphylococcus aureus; cited from earlier work.
Data set [3] has as its system Penicillium digitalum. The following applies: spore germination test with Penicillium digitalum; cited from earlier work.
For data set [4], the system named is Escedchia coli. The following applies: against Escedchia coli; cited from earlier work.

`CC1CCCCCC(=O)c2c(O)cc(O)cc2CC(=O)O1` (stereo not shown) [curvularin, Curvularin]: the anti-bacterial activity result in data set [1], in data set [2] and in data set [4] was “Neither curvularin nor the crude filtrates from Curvularia showed” in each case. For the same molecule, the anti-fungal activity entry in data set [3] was “Neither curvularin nor the crude filtrates from Curvularia showed”.
